This test concerns the target T1, N-type calcium channel (NTCC) (Homo sapiens, UniProt Q00975).
T1 construct: host or cells: IMR32 cells differentiated with dibutyryl cAMP and bromodeoxyuridine
Nature of the test: FLIPR calcium mobilization assay for N-type calcium channel (differentiated IMR32 cells). It is filed as cell-based. Here is the method: Cell maintenance and differentiation. Unless noted otherwise, cell culture reagents were purchased from Mediatech of Hemdon, Md. IMR32 cells (American Type Culture Collection, ATCC, Manassas, Va.) were routinely cultured in growth medium consisting of minimum essential medium containing 10% fetal bovine serum (FBS, Hyclone, Logan, Utah), 100 U/mL penicillin, 100 μg/mL streptomycin, 2 mM L-glutamine, 1 mM sodium pyruvate, and 1× MEM non-essential amino acids. 80-90% confluent flasks of cells were differentiated using the following differentiation medium: Growth medium plus 1 mM dibutyryl cyclic AMP (Sigma, St. Louis, Mo.), and 2.5 μM bromodeoxyuridine (Sigma). Cells were differentiated for 8 days by replacing differentiation medium every 2-3 days.
FLIPR Calcium Mobilization Assay for N-type Calcium Channel. One day prior to performing this assay, differentiated IMR32 cells were treated with 1× CellStripper, and seeded on poly-D-lysine-coated 96-well clear-bottom black plates (Becton Dickinson, Franklin Lakes, N.J.) at 200,000 cells/well. On the day of the assay, the cell plates were washed with IMR32 buffer (127 mM NaCl, 1 mM KCl, 2 mM MgCl2, 700 μM NaH2PO4, 5 mM CaCl2, 5 mM NaHCO3, 8 mM HEPES, 10 mM glucose, pH 7.4), then pre-stimulated with KCl and loaded as follows: 0.05 mL of IMR32 buffer, 0.05 mL of each compound tested diluted in IMR32 buffer containing 20 μM nitrendipine (Sigma), and 0.1 mL KCl dissolved in IMR32 buffer, plus Fluo-4 were added (3 μM final concentration, Molecular Probes, Eugene, Oreg.). Final test compound concentrations ranged from about 846 pM to about 17 μM, final nitrendipine concentration was 5 μM, and final KCl concentration was 90 mM. After 1 hour, the cells were washed twice with 0.05 mL of each compound tested in nitrendipine-containing IMR32 buffer (no KCl or Fluo-4), and then replaced with 0.1 mL of each compound tested in nitrendipine-containing IMR32 buffer. Plates were then transferred to a Fluorimetric imaging Plate Reader (FLIPR^96, Molecular Devices, Inc., Sunnyvale, Calif.) for assay. The FLIPR measured basal Fluo-4 fluorescence for 315 seconds (i.e., 5 minutes and 15 seconds), then added 0.1 mL KCl agonist dissolved in IMR32 buffer and measured fluorescence for another 45 seconds. Final test compound concentrations on the cells after FLIPR read ranged from about 846 pM to about 17 μM, final nitrendipine concentration was 5 μM, and final KCl concentration was 90 mM. Data were collected over the entire time course and analyzed using Excel, Graph Pad Prism (version 3.02, Graph Pad, San Diego, Calif.), or an in-house non-linear regression analysis software.

Where [1] appears, read: about 1.0 μM or less, calcium mobilization and/or electrophysiological assay.

Our source for the IC50 values is patent US20090298878A1, “OXIME COMPOUNDS AND THE USE THEREOF” (priority 2006, published 2009).

Where a name gives a salt, the structure may show the parent alone.

T1 sequence (Q00975 whole entry): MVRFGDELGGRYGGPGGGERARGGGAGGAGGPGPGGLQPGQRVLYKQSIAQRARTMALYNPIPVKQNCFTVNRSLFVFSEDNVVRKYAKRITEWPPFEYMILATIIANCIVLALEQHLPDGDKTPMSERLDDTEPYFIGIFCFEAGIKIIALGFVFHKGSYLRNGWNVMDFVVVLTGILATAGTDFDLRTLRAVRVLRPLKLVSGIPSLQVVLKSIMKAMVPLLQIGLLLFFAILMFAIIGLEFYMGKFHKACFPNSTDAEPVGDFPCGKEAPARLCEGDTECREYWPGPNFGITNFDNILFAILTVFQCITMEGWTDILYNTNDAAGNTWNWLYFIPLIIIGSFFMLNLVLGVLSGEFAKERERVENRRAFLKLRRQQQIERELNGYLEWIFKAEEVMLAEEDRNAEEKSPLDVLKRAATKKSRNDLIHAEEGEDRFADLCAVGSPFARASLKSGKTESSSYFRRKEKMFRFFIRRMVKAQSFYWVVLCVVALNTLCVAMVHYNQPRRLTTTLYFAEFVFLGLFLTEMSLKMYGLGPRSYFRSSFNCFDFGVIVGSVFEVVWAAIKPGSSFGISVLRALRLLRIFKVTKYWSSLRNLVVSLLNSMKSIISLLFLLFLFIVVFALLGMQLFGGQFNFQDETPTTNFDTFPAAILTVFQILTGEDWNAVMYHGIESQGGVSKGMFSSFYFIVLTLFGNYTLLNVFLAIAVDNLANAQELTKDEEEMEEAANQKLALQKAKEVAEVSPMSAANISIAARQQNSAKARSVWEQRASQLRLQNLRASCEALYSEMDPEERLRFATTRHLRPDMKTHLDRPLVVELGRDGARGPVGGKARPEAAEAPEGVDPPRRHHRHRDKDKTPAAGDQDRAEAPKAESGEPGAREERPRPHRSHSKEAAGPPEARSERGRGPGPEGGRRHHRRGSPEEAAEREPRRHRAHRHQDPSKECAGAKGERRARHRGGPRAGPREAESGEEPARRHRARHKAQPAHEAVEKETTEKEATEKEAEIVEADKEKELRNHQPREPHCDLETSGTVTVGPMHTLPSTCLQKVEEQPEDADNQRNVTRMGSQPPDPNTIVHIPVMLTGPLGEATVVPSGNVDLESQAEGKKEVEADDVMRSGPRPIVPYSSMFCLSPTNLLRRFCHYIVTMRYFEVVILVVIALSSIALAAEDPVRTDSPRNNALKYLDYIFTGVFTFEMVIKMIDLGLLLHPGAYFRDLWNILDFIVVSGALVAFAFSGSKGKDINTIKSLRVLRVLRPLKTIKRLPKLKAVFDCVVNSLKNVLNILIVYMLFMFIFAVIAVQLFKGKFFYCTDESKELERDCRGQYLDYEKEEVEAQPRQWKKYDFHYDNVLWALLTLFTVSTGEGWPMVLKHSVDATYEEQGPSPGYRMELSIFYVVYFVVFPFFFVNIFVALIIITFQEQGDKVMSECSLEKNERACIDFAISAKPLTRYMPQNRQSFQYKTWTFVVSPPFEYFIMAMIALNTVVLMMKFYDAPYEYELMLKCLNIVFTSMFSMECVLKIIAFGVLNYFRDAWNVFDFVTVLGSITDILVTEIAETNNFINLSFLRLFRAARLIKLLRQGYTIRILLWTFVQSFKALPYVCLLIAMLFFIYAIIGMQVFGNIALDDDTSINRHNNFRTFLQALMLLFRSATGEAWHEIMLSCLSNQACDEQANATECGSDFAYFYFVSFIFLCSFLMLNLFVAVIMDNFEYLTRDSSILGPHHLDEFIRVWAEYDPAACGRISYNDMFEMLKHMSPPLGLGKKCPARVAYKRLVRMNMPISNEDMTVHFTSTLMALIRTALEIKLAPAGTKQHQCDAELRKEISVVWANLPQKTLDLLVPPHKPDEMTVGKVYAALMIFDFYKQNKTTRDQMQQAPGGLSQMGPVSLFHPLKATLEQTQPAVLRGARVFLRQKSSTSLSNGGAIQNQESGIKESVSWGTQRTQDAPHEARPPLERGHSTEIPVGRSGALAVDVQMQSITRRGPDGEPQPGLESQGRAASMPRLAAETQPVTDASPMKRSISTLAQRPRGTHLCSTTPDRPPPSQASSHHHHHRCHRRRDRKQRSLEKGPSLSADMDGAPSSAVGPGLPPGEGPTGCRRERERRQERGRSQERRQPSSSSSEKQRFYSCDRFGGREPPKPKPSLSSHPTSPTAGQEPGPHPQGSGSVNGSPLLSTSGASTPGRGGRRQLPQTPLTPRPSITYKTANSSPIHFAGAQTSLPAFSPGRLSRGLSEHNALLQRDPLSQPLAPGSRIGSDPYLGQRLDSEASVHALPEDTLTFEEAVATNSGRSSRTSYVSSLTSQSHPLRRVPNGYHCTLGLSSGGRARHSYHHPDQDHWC

In the case of `N#Cc1cc(CON=C2CCN(C(=O)CCC(c3ccc(F)cc3)c3ccc(F)cc3)CC2)ccc1F` [Example 181, 5-((1-(4,4-Bis(4-fluorophenyl)butanoyl)piperidin-4-ylideneaminooxy)methyl)-2-fluorobenzonitrile], the half-inhibitory concentration (IC50) under setting [1] was at most 1 µM. The same measure, in the same setting: under `CCCCc1ccc(S(=O)(=O)N2CCC(=NOCc3cccc(Cl)n3)CC2)cc1` [Example 75, 1-(4-Butylbenzenesulfonyl)piperidin-4-one O-(6-chloropyridin-2-ylmethyl)oxime] stands at most 1 µM.

As to `O=[N+]([O-])c1ccc(CON=C2CCN(S(=O)(=O)c3ccc(OC(F)(F)F)cc3)CC2)cc1` [Example 134, 1-(4-Trifluoromethoxybenzenesulfonyl)piperidin-4-one O-(4-nitrobenzyl)oxime], the concentration for half-maximal inhibition (IC50) under setting [1] is at most 1 µM.

Turning to `Cn1c(Cl)cc(CON=C2CCN(S(=O)(=O)c3ccc(OC(F)(F)F)cc3)CC2)cc1=O` [Example 152, 6-Chloro-1-methyl-4-[1-(4-trifluoromethoxybenzenesulfonyl)piperidin-4-ylideneaminooxymethyl]-1H-pyridin-2-one], under setting [1], the IC50 was at most 1 µM. Still for that read-out and setting: the result for `CC(C)Oc1ccc(S(=O)(=O)N2CCC(=NOCc3cccc(C(F)(F)F)c3)CC2)cc1` [Example 93, 1-(4-Isopropoxybenzenesulfonyl)piperidin-4-one O-(3-trifluoromethylbenzyl)oxime] reads at most 1 µM. Turning to `CCCCC(C)ON=C1CCN(S(=O)(=O)c2cccc(C(F)(F)F)c2)CC1` (centres unmarked) [Example 367, 1-(3-(Trifluoromethyl)phenylsulfonyl)piperidin-4-one O-hexan-2-yl oxime], the IC50 under setting [1] was at most 1 µM. The same measure, in the same setting: under `O=C(CCN1CCC(Cc2ccccc2)CC1)N1CCC(=NOCc2cccc(C(F)(F)F)c2)CC1` [Example 48, 1-[3-(4-Benzylpiperidin-1-yl)propionyl]piperidin-4-one O-(3-trifluoromethylbenzyl)oxime hydrochloride] stands at most 1 µM.

For the compound `CCCCc1ccc(S(=O)(=O)N2CCC(=NOCc3cccc(Cl)c3)CC2)cc1` [Example 65, 1-(4-Butylbenzenesulfonyl)piperidin-4-one O-(3-chlorobenzyl)oxime], the 50% inhibitory concentration (IC50) under setting [1] was at most 1 µM. Still for that read-out and setting: the result for `CCCCc1ccc(S(=O)(=O)N2CCC(=NOC(C)c3cccc(C(F)(F)F)c3)CC2)cc1` (centres unmarked) [Example 74, 1-(4-Butylbenzenesulfonyl)piperidin-4-one O-[1-(3-trifluoromethylphenyl)ethyl]oxime] reads at most 1 µM; that for `N#Cc1ccc(-n2cc(CON=C3CCN(S(=O)(=O)c4ccc(OC(F)(F)F)cc4)CC3)ccc2=O)cc1` [Example 315, 4-(2-oxo-5-((1-(4-(trifluoromethoxy)phenylsulfonyl)piperidin-4-ylideneaminooxy)methyl)pyridin-1(2H)-yl)benzonitrile], at most 1 µM. As to `O=C(CN1CCC(=NOC(c2ccc(F)cc2)c2ccc(F)cc2)CC1)Nc1cc(C(F)(F)F)cc(C(F)(F)F)c1` [Example 328, 2-(4-(Bis(4-fluorophenyl)methoxyimino)piperidin-1-yl)-N-(3,5-bis(trifluoromethyl)phenyl)acetamide], the IC50 (calcium mobilization in vitro assay, N-type calcium channel blockers) was 1.1 µM. In the case of `Cn1c(CON=C2CCN(S(=O)(=O)c3ccc(OC(F)(F)F)cc3)CC2)nc2ccccc21` [Example 160, 1-(4-(Trifluoromethoxy)phenylsulfonyl)piperidin-4-one O-(1-methyl-1H-benzo[d]imidazol-2-yl)methyl oxime], the IC50 under setting [1] is at most 1 µM.

Consider `Nc1ccccc1S(=O)(=O)N1CCC(=NOCc2cccc(C(F)(F)F)c2)CC1` [Example 85, 1-(2-Aminobenzenesulfonyl)piperidin-4-one O-(3-trifluoromethylbenzyl)oxime], for which the IC50 under setting [1] was at most 1 µM. For `O=S(=O)(c1cccc(C(F)(F)F)c1)N1CCC(=NOC(c2ccc(F)cc2)c2ccc(F)cc2)CC1` [Example 285, 1-(3-(Trifluoromethyl)phenylsulfonyl)piperidin-4-one O-bis(4-fluorophenyl)methyl oxime], the IC50 under setting [1] was at most 1 µM.
